According to patent publication US4512992A, “Treatment with dialkoxy pyridopyrimidine compounds” (Burroughs Wellcome Co., priority 1981, dated 1985):

Assays:
[1] = target: T1, mammalian dihydrofolate reductase (DHFR) (Rattus norvegicus, UniProt Q920D2); test: Inhibition of mammalian dihydrofolate reductase (DHFR) partially purified from rat liver; assay type: biochemical
T1 construct: DHFR partially purified from rat liver; from tissue; host or cells: rat liver
T1 sequence (Q920D2 1-187): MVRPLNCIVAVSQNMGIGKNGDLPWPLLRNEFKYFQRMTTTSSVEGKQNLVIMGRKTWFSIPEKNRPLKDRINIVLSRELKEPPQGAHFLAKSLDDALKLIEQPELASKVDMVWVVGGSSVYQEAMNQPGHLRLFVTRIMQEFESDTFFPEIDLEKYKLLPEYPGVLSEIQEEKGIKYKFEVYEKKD
Method: Inhibition of Mammalian Dihydrofolate Reductase (DHFR) by […]-5-methyl-6-benzylpyrido(2,3-d)pyrimidines
The inhibitory effect of the test compounds against DHFR partially purified from rat liver was determined. An IC50 of 5×10^-8 M or less is considered significant potency, an IC50 of 1×10^-8 M or less being particularly significant potency.

[2] = target: Histamine N-Methyltransferase (HMT) (Homo sapiens, UniProt P50135); test: Inhibition of histamine N-methyltransferase (HMT); assay type: biochemical
Sequence of Histamine N-Methyltransferase (HMT) (P50135 whole entry, species assumed): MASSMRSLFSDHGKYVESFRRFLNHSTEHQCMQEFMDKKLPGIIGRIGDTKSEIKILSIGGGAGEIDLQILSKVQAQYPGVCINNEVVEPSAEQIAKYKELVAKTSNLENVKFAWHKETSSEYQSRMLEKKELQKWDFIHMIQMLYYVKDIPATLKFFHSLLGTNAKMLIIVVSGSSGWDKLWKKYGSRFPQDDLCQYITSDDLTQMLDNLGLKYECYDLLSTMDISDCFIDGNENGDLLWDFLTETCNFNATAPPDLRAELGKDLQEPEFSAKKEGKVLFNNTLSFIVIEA
Method: Inhibition of Histamine N-Methyltransferase
The effect of the test compounds used in Example 2 against HMT was determined. An inhibition of less than 20% was considered acceptable.

inhibitor of mammalian DHFR (in words) [1]: very potent inhibitor of mammalian DHFR
Compound: COc1ccc(Cc2cnc3nc(N)nc(N)c3c2C)cc1OC [2,4-Diamino-6-(3,4-dimethoxybenzyl)-5-methylpyrido[2,3-d]pyrimidine]
inhibitory activity against HMT (in words) [2]: acceptably low inhibitory activity against HMT
